Literature values, collected in patent publication US9981895B1 (Parnative, Inc., priority 2015, dated 2018).

What was measured:
HeLa cell line = conditions: MTT assay, Abbott et al. 2010
RAW 264.7 cell line = conditions: MTT assay, Abbott et al. 2010
[1] = TBARS assay; CPC-purified compounds; Abbott et al. 2010

Row | Compound | concentration at which cytotoxicity was demonstrated (HeLa cell line) | concentration at which cytotoxicity was demonstrated (RAW 264.7 cell line) | dose at which oxidation was inhibited [1]
1 | 5-RE)-2-(4-hydroxyphenyl) ethenyl]-2-[(1E)-2-phenylprop-1-en-1-yl]benzene-1,3-diol [arachidin-3] | 55 µM | 55 µM | 14 µM
2 | CC(C)/C=C/c1c(O)cc(/C=C/c2ccc(O)c(O)c2)cc1O [arachidin-1] | 27 µM | 27 µM | 7 µM
